Experimental data published in patent US11248254B2, “Method and system employing distinguishable polymerases for detecting ternary complexes and identifying cognate nucleotides” (Omniome, Inc., priority 2016, dated 2022).

Key:
Assay type in all cases: binding
[1] = target: T1, ternary complex of primed template nucleic acid, Bst DNA polymerase large fragment and cognate nucleotide (Geobacillus stearothermophilus, UniProt P52026); experiment: Biolayer interferometry: formation and retention of ternary complexes with different non-catalytic metal ions; details: 2 mM test metal ion; for binding signal when ternary complexes formed on primed template nucleic acid: 100 μM correct nucleotide, 200 nM Bst polymerase, 60 s binding (FIG. 2); for ternary complex decay / stability following washing: wash without polymerase, 10 μM correct dNTP, 100 μM incorrect dNTP, 300 s (FIG. 2); for ternary complex binding signal following a wash step, expressed as a percentage of the maximum signal: wash in absence of non-bound polymerase, baseline = signal at initial nucleotide contact
T1 construct: 200 nM unlabeled Bst DNA polymerase large fragment
T1 sequence (P52026 289-876 limits assumed): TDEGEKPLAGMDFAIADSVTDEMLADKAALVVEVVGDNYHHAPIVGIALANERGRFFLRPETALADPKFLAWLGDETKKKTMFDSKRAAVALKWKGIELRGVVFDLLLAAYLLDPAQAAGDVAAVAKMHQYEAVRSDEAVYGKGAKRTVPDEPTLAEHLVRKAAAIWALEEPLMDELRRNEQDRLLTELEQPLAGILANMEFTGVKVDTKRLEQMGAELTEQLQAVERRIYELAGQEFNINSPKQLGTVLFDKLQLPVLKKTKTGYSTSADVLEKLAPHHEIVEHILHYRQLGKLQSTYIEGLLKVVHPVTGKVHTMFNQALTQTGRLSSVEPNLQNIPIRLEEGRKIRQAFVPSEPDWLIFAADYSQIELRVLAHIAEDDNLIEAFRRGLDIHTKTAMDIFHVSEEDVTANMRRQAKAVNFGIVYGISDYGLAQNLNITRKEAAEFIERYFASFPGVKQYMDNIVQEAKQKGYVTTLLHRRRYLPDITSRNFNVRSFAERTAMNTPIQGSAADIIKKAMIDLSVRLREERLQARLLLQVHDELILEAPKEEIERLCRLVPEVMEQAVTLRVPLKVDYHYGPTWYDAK
Source text: A FORTEBIO® (Menlo Park, Calif.) Octet instrument employing biolayer interferometry to measure binding reactions at the surface of a fiber optic tip was used in a multiwell plate format to assess formation and stability of ternary complexes in the presence of different non-catalytic metal ions. Template nucleic acid strands biotinylated at their 5′-ends were used to immobilize the primed template nucleic acid onto fiber optic tips functionalized with streptavidin (SA) according to standard procedures. Tips were washed in a Tris-buffered solution containing 200 mM KCl, 160 mM potassium glutamate, and 0.01% Tween-20 before commencing the cycling protocol. Binding reactions conducted using 2 mM of the test metal ion (i.e., 2 mM of the metal salt) were carried out in serial fashion using examination buffers that contained Tris-HCl (pH 8.0), 220 mM KCl, 160 mM potassium glutamate, 0.01% Tween-20, 1 mM β-mercaptoethanol, 100 μg/ml BSA, the correct nucleotide at a concentration of 100 μM, and 200 nM unlabeled Bst DNA polymerase large fragment. Salts used in the testing procedure included: SrCl2, Na3VO4, EuCl3, and CuSO4. Examination buffers in this procedure were supplemented with DMSO and betaine to control DNA secondary structure. Binding steps were carried out for 60 seconds, and were followed by wash steps using a buffer that omitted polymerase, but included 10 μM of the correct dNTP, 100 μM of the incorrect dNTP, and 2 mM of the test metal ion. Retention of the ternary complex was measured over the course of 300 seconds. Surviving ternary complexes were stripped from the primed template by exposure to a solution containing 30 mM Tris-HCl (pH 8.0), 1 M NaCl, 4 mM EDTA, 4 mM DTPA, 0.2% SDS, 0.05% Tween-20, and 3% Tween-80 for a period of 30 seconds. This was followed by exposure to a regeneration solution made Tris-HCl (pH 8.0), 220 mM KCl, 160 mM potassium glutamate, 0.01% Tween-20, 1 mM β-mercaptoethanol, 100 μg/ml BSA for 20 seconds before commencing binding of polymerase and cognate nucleotide in the presence of the next test metal ion.

[2] = target: T2, Bsu DNA polymerase large fragment with primed template nucleic acid (Bacillus subtilis, UniProt O34996); experiment: Biolayer interferometry: discrimination between ternary (cognate dCTP) and binary (non-cognate dGTP) complex formation, KCl titration; details: 2 mM stabilizing cation, KCl 100-650 mM, potassium glutamate 80-640 mM (FIGS. 3, 4)
T2 construct: 350 U/ml Bsu DNA polymerase large fragment
T2 sequence (O34996 297-880 limits assumed): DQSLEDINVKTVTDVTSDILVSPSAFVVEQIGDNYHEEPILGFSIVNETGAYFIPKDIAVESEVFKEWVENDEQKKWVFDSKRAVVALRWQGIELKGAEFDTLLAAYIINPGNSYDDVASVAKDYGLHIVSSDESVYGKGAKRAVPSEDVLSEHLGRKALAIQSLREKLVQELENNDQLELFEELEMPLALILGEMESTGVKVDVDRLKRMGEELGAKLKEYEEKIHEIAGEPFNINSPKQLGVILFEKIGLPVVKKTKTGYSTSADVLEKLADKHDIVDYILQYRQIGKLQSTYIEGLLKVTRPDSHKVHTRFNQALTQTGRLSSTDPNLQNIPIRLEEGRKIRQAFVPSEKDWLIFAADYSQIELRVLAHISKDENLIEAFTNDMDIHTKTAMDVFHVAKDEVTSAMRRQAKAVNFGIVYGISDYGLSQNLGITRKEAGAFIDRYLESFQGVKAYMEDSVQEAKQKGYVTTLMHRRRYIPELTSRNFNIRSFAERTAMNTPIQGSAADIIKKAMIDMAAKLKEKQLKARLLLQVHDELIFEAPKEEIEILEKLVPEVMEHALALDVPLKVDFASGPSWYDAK
Source text: Materials and methods used in the procedure were as follows. The FORTEBIO® OCTET® instrument employing biolayer interferometry was used to measure binding reactions at the surface of a fiber optic tip in a multiwell plate format to investigate differential formation of binary and ternary complexes. Template strands biotinylated at their 5′-ends were used to immobilize the primed template nucleic acid onto fiber optic tips functionalized with streptavidin (SA) according to standard procedures. The next correct nucleotide for the biotinylated template DNA was dCTP (with dGTP being used as the model incorrect nucleotide). Tips were first equilibrated in a Tris-buffered solution containing 30 mM Tris-HCl (pH 8.0), and 0.1 mM EDTA before commencing the cycling protocol. […] When using a single contacting step to effect binding of polymerase and nucleotide to the primed template nucleic acid, the binding step was 60 seconds long, with binding interactions being monitored continuously. […] Results from interferometry monitoring were analyzed to identify formation of ternary complexes (i.e., identifying cognate nucleotide) or binary complexes (i.e., identifying non-cognate nucleotide).

[3] = system: tested polymerases with primed template nucleic acid; experiment: Discrimination between correct and incorrect nucleotides at higher metal cation concentration; details: cation greater than about 5 mM; 150 mM to 300 mM monovalent metal cations

SMILES	binding signal when ternary complexes formed on primed template nucleic acid [1]	ternary complex decay / stability following washing [1]	ternary complex binding signal following a wash step, expressed as a percentage of the maximum signal [1]	discrimination between ternary and binary complex formation [2]	ability of polymerase to discriminate between correct and incorrect nucleotides [3]
O=S(=O)([O-])[O-].[Cu+2] [Cu^2+, CuSO4]	moderately high binding signals	rapid decay	–	–	–
[Cl][Eu]([Cl])[Cl] [Eu^3+, EuCl3]	high binding signals	substantially more stable	about 80%	good discrimination between ternary and binary complex formation was achievable	reduced abilities to discriminate between correct and incorrect nucleotides
[Ni+2] [Ni^2+]	–	–	–	–	This was not the case
[Cl-].[Cl-].[Sr+2] [Sr^2+, SrCl2]	high binding signals	slower than observed with V^5+ and Cu^2+ ions	about 40%	–	This was not the case
[Tb+3] [Tb^3+]	–	substantially similar to the use of Eu^3+ ions	substantially similar to trials conducted using Eu^3+ cations	good discrimination between ternary and binary complex formation was achievable	reduced abilities to discriminate between correct and incorrect nucleotides
[Na+].[Na+].[Na+].[O]=[V]([O-])([O-])[O-] [V^5+, Na3VO4]	moderately high binding signals	rapid decay	–	–	–
